How the values were obtained:
Assay type in all cases: in vivo, C57BL/6 mice
[1] = system: mouse acute lung injury model; test: Mouse acute lung injury model (LPS), ELISA; settings: title: serum (text b290: lung tissues)
Experimental: In addition to the normal group injected intragastrically with PBS, other mice were injected intraperitoneally with LPS (7.5 mg/kg) to establish acute lung injury models. Three days before model establishment, the parent drug 1 (0.4 and 4 μmol/kg), the hydrochloride 22 (0.4 and 4 μmol/kg), the fumarate 23 (0.4 and 4 μmol/kg) and the positive drug Dex (12 μmol/kg) were administered intragastrically in advance, and LPS (7.5 mg/kg) was injected intraperitoneally half an hour after administration on the third day.
abdominal cavity was opened. The lungs were taken out, and rinsed twice with pre-cooled PBS. […] The remaining tissues were frozen at −70° C. for subsequent use.
20 mg of lung tissues were accurately weighed, rinsed with pre-cooled PBS solution, cut into small pieces by ophthalmic surgical scissors, and put into a glass homogenizer, into which was added 180 μL PBS (containing 1 mM PMSF). The mixture was homogenized at 60 HZ for 180 s, and centrifuged at 3000 rpm/min at 4° C. for 20 min. 1 μL supernatant was taken, the protein concentration of which was measured with Nanodrop and leveled, and could be used for subsequent experiments.

[2] = system: mouse acute liver injury model; test: Mouse acute liver injury model (CCl4); settings: for Acta2 mRNA expression / Col1a1 mRNA expression / Tgfb1 mRNA expression: liver; for ALT / AST: serum, 3 days
Experimental: The mice were randomly divided into 8 groups, one of which was randomly selected as the normal group, and the other 7 groups were the model group, the parent drug 1 (0.4 and 4 μmol/kg), the hydrochloride 22 (4 μmol/kg), and the fumarate 23 (0.4 and 4 μmol/kg) groups, respectively, with 6 mice in each group. In addition to the normal group injected with 10 mL olive oil/kg, the other mice were injected intraperitoneally with 0.5 mL CCl4+9.5 mL olive oil/kg weight, i.e., the ratio of CCl4 to olive oil was 1:19. […] The mice in the normal group and model group were administered intragastrically the same volume of the solvent 0.5% CMC-Na.
1 h after the last administration, blood was collected from the venous plexus of fundus oculi, stood at room temperature for 2 h, and centrifuged at 3000 rpm for 20 min. The serum was aspirated, aliquoted, and frozen at −70° C. for subsequent use. After blood collection, the mice were sacrificed by cervical dislocation, and the abdominal cavity was opened. The livers were taken out, and rinsed twice with pre-cooled PBS. The liver left lobe tissues of the mice were cut, and fixed with 4% paraformaldehyde for 24-48 h. The remaining tissues were frozen at −70° C. for subsequent use.
μL of each sample was taken for experiments. The levels of AST and ALT in the serum of mice were detected according to the operation manual. The absorbance value was detected at the wavelength of 510 nm by a microplate reader, and the sample concentration (U/L) was calculated according to the standard curve.
The extraction method of total RNA from tissues, cDNA synthesis and the PCR amplification method are the same as those in Example 4.

[3] = system: chronic kidney injury models by the unilateral ureteral obstruction method; test: Mouse chronic kidney injury model (unilateral ureteral obstruction); settings: for BUN (urea level in serum) / Scr (creatinine level in serum): 14 days; for BUN (urea level in serum): in mmol/L (unit assumed); for Scr (creatinine level in serum): in µmol/L (unit assumed); for Col1a1 mRNA expression / Havcr1 mRNA expression / Il1 mRNA expression / Il6 mRNA expression / Ngal mRNA expression / Tgfb1 mRNA expression / Tnf mRNA expression / α-Sma mRNA expression: kidney
Excerpt: Chronic kidney injury: The mice were randomly divided into 7 groups, one of which was randomly selected as the normal group, and the other 6 groups were the model group, the parent drug 1 (0.4 and 4 μmol/kg), the hydrochloride 22 (4 μmol/kg), and the fumarate 23 (0.4 and 4 μmol/kg) groups, respectively, with 6 mice in each group. In addition to mice in the normal group that had sham operations (i.e., there was no other operations, but only the left ureter was exposed), the other mice were established chronic kidney injury models by the unilateral ureteral obstruction method. Specifically, the abdominal skin was sterilized with iodophor and alcohol in sequence, and the abdominal skin was cut and separated layer by layer. After fully exposing and separating the left ureter, double obstruction was performed at the proximal bladder end of the ureter with a digestible suture line, followed by suture. On the first day of model establishment, the parent drug 1 (0.4 and 4 μmol/kg), the hydrochloride 22 (4 μmol/kg) and the fumarate 23 (0.4 and 4 μmol/kg) were administered intragastrically for 14 consecutive days. The mice in the normal group and model group were administered intragastrically the same volume of the solvent 0.5% CMC-Na.
1 h after the last administration, blood was collected from the venous plexus of fundus oculi, stood at room temperature for 2 h, and centrifuged at 3000 rpm for 20 min. The serum was aspirated, aliquoted, and frozen at −70° C. for subsequent use. After blood collection, the mice were sacrificed by cervical dislocation, and the abdominal cavity was opened. The kidneys were taken out, rinsed twice with pre-cooled PBS after the perirenal fats and capsules were peeled off, and then fixed with 4% paraformaldehyde for 24-48 h, embedded in paraffin and stained with HE. The remaining tissues were frozen at −70° C. for subsequent use.
μL serum was taken from each sample for the detection of creatinine and urea levels. Samples were added in accordance with the instructions of the kit strictly. After incubation at 37° C., the absorbance value was measured in a microplate reader, and the content levels of detection indicators in each group were calculated according to the standard curve.
The extraction of total RNA from animal tissues, cDNA synthesis and PCR amplification are as in above examples.

Compound | IL-1β ([1]; 0.4 μmol/kg) [pg/mL] | IL-6 ([1]; 0.4 μmol/kg) [pg/mL] | IL-1β ([1]; 4 μmol/kg) [pg/mL] | IL-6 ([1]; 4 μmol/kg) [pg/mL] | Acta2 mRNA expression ([2]; 0.4 μmol/kg) | Acta2 mRNA expression ([2]; 4 μmol/kg) | Col1a1 mRNA expression ([2]; 4 μmol/kg) | Tgfb1 mRNA expression ([2]; 4 μmol/kg) | ALT ([2]; 4 μmol/kg i.g.) [U/L] | AST ([2]; 4 μmol/kg i.g.) [U/L] | BUN (urea level in serum) ([3]; 4 μmol/kg i.g.) | Scr (creatinine level in serum) ([3]; 4 μmol/kg i.g.) | Col1a1 mRNA expression ([3]; 4 μmol/kg) | Havcr1 mRNA expression ([3]; 4 μmol/kg) | Il1 mRNA expression ([3]; 4 μmol/kg) | Il6 mRNA expression ([3]; 4 μmol/kg) | Ngal mRNA expression ([3]; 4 μmol/kg) | Tgfb1 mRNA expression ([3]; 4 μmol/kg) | Tnf mRNA expression ([3]; 4 μmol/kg) | α-Sma mRNA expression ([3]; 4 μmol/kg) | other results
C=C1C(=O)O[C@@H]2[C@@H]3[C@]4(CC[C@@]3(C)O)C[C@]4(C)CC[C@@H]12 [Compound 1] | 1824.88 ± 32.73 | 2760.57 ± 288.02 | 945.66 ± 36.71 | 1314.91 ± 231.08 | 3.78 | 2.41 | 1.42 | 1.12 | 105.14 | 239.08 | 11.01 | 104.65 | 9.45 | 8.54 | 3.99 | 6.50 | 21.66 | 1.55 | 6.59 | 1.54 | Col1a1 mRNA expression ([2]; 0.4 μmol/kg): 2.33; Tgfb1 mRNA expression ([2]; 0.4 μmol/kg): 1.43; ALT ([2]; 0.4 μmol/kg i.g.): 174.83 U/L; AST ([2]; 0.4 μmol/kg i.g.): 425.20 U/L; BUN (urea level in serum) ([3]; 0.4 μmol/kg i.g.): 18.41; Scr (creatinine level in serum) ([3]; 0.4 μmol/kg i.g.): 176.35; Col1a1 mRNA expression ([3]; 0.4 μmol/kg): 16.09; Havcr1 mRNA expression ([3]; 0.4 μmol/kg): 12.56; Il1 mRNA expression ([3]; 0.4 μmol/kg): 6.05; Il6 mRNA expression ([3]; 0.4 μmol/kg): 16.52; Ngal mRNA expression ([3]; 0.4 μmol/kg): 37.82; Tgfb1 mRNA expression ([3]; 0.4 μmol/kg): 2.04; Tnf mRNA expression ([3]; 0.4 μmol/kg): 6.41; α-Sma mRNA expression ([3]; 0.4 μmol/kg): 2.32
CN(C)C[C@@H]1C(=O)O[C@H]2[C@H]1CC[C@@]1(C)C[C@]13CC[C@@](C)(O)[C@H]23 [Compound 22] | 1570.02 ± 62.95 | 2348.32 ± 202.75 | 708.74 ± 38.40 | 1172.00 ± 240.50 |  | 1.85 | 1.16 | 0.92 | 85.02 | 153.34 | 9.39 | 64.50 | 7.30 | 6.29 | 2.77 | 3.69 | 16.14 | 1.44 | 5.09 | 1.26 | 
CN(C)C[C@@H]1C(=O)O[C@H]2[C@H]1CC[C@@]1(C)C[C@]13CC[C@@](C)(O)[C@H]23 [Compound 23] | 1623.55 ± 32.64 | 2585.26 ± 273.50 | 888.28 ± 35.20 | 1288.32 ± 123.80 | 2.97 | 2.15 | 1.33 | 0.97 | 99.46 | 216.14 | 9.45 | 79.87 | 8.27 | 7.25 | 3.55 | 5.61 | 19.42 | 1.53 | 7.53 | 1.39 | Col1a1 mRNA expression ([2]; 0.4 μmol/kg): 1.83; Tgfb1 mRNA expression ([2]; 0.4 μmol/kg): 1.08; ALT ([2]; 0.4 μmol/kg i.g.): 134.21 U/L; AST ([2]; 0.4 μmol/kg i.g.): 387.71 U/L; BUN (urea level in serum) ([3]; 0.4 μmol/kg i.g.): 17.63; Scr (creatinine level in serum) ([3]; 0.4 μmol/kg i.g.): 157.79; Col1a1 mRNA expression ([3]; 0.4 μmol/kg): 11.79; Havcr1 mRNA expression ([3]; 0.4 μmol/kg): 11.90; Il1 mRNA expression ([3]; 0.4 μmol/kg): 5.32; Il6 mRNA expression ([3]; 0.4 μmol/kg): 14.31; Ngal mRNA expression ([3]; 0.4 μmol/kg): 35.77; Tgfb1 mRNA expression ([3]; 0.4 μmol/kg): 1.76; Tnf mRNA expression ([3]; 0.4 μmol/kg): 7.10; α-Sma mRNA expression ([3]; 0.4 μmol/kg): 2.02

Reference: patent US20240124409A1, “GUAIANOLIDE SESQUITERPENE LACTONE DERIVATIVES AND PHARMACEUTICAL USE THEREOF” (NANJING UNIVERSITY OF CHINESE MEDICINE, priority 2021, published 2024)
